This is an account of results in US12570604B2, “Polymorphic forms of a tetracycline compound and uses thereof” (Tetraphase Pharmaceuticals, Inc., priority 2018, dated 2026).

A short description of data set [1]: Dynamic vapor sorption (DVS) of crystalline Forms C and D. The class given is physicochemical. Conditions: for DVS rapid weight gain: in the range of 25-35% RH; for DVS low weight gain: in the range of 35-75% RH. The procedure:
(§1) The crystalline forms provided can be additionally characterized by dynamic vapor sorption (DVS), wherein a sample is subjected to varying conditions of humidity and temperature, and the response of the sample is measured gravimetrically. The result of a DVS analysis particularly can be a dual curve providing sample weight percent as a function of relative humidity (RH) over time, a dual curve providing sample water content as a function of RH over time, a curve providing weight percent in relation to RH, or a curve providing water content in relation to RH. Equipment useful for measuring such data is known in the art, and any such equipment can be used to measure the compounds according to the present invention. In certain embodiments, DVS analysis can be carried out by scanning at a series of specific RH values. Thus, specific polymorphs according to the invention may be identified and described in relation to the representative graph and/or the approximate peaks obtained in DVS analysis, particularly scanning from 0% to 95% RH with a step interval of 5% or 10% RH.
DVS data for the crystalline Forms C and D were collected on a Surface Measurement System DVS Intrinsic instrument. Samples were not dried prior to analysis. Sorption and desorption data were collected over a range from 5% to 95% RH at 10% RH increments under a nitrogen purge. The equilibrium criterion used for analysis was less than 0.0100% weight change in 5 minutes with a maximum equilibration time of 3 hours. Data were not corrected for the initial moisture content of the samples.

The nature of data set [2]: Dynamic vapor sorption (DVS) of crystalline Forms A and B. The class given is physicochemical. The settings on record: 25° C., adsorption range 0% to 95% RH. The procedure: as §1
DVS pattern for the crystalline Forms A and B was generated at 25° C. using a DVS Moisture Balance Flow System (Model Advantage) with the following conditions: sample size approximately 10 to 20 mg, drying at 25° C. for 60 minutes, adsorption range 0% to 95% RH, desorption range 95% to 0% RH, and step interval 5% RH. […]

In the case of `CN(C)[C@@H]1C(O)=C(C(N)=O)C(=O)[C@@]2(O)C(O)=C3C(=O)c4c(O)c(NC(=O)[C@@H]5CCCN5C)cc(F)c4C[C@H]3C[C@@H]12` [Form D, (S)—N-((5aR,6aS,7S,10aS)-9-carbamoyl-7-(dimethylamino)-4-fluoro-1,8,10a,11-tetrahydroxy-10,12-dioxo-5,5a,6,6a,7,10,10a,12-octahydrotetracen-2-yl)-1-methylpyrrolidine-2-carboxamide], the “DVS total weight gain” value in data set [1] (between 5 and 95% RH) is “about 39.2%”. Moreover, the DVS weight gain entry in data set [1] (in the range of 5-25% RH) is on record as “about 2.7%”. Also, in data set [1], the “DVS rapid weight gain” value is “about 10%” and the “DVS low weight gain” value is “about 3.7%”.

As to `CN(C)[C@@H]1C(O)=C(C(N)=O)C(=O)[C@@]2(O)C(O)=C3C(=O)c4c(O)c(NC(=O)[C@@H]5CCCN5C)cc(F)c4C[C@H]3C[C@@H]12` [Form A, (S)—N-((5aR,6aS,7S,10aS)-9-carbamoyl-7-(dimethylamino)-4-fluoro-1,8,10a,11-tetrahydroxy-10,12-dioxo-5,5a,6,6a,7,10,10a,12-octahydrotetracen-2-yl)-1-methylpyrrolidine-2-carboxamide], the DVS weight gain result in data set [2] (at 75% RH) is recorded as “about 19%”; in data set [2] (at 95% RH) it was “about 40%”.

For the molecule `CN(C)[C@@H]1C(O)=C(C(N)=O)C(=O)[C@@]2(O)C(O)=C3C(=O)c4c(O)c(NC(=O)[C@@H]5CCCN5C)cc(F)c4C[C@H]3C[C@@H]12` [Form C, (S)—N-((5aR,6aS,7S,10aS)-9-carbamoyl-7-(dimethylamino)-4-fluoro-1,8,10a,11-tetrahydroxy-10,12-dioxo-5,5a,6,6a,7,10,10a,12-octahydrotetracen-2-yl)-1-methylpyrrolidine-2-carboxamide], the DVS weight gain entry in data set [1] (in the range of 5-25% RH) is “about 2.7%”; in data set [1] (in the range of 35-45% RH), “about 6.1%”. Further, in data set [1], the “DVS rapid weight gain” value was “about 10%”. For the same molecule, in data set [1], the “DVS low weight gain” value is given as “about 3.7%”.
